In patent US20250228239A1, “MOLECULES HAVING PESTICIDAL UTILITY, AND INTERMEDIATES, COMPOSITIONS, AND PROCESSES, RELATED THERETO” (priority 2024, published 2025):
Like-named read-outs stand apart in the source and are kept apart here.

Assays:
Type in all cases: in vivo
[1] = system: Green Peach Aphid (Myzus persicae, MYZUPE); assay: Bioassays on Green Peach Aphid (GPA), foliar spray on cabbage seedlings; settings: 72 h
In short: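 Percent control (Abbott-corrected versus solvent-sprayed plants) comes from live-aphid counts three days after treatment at about 25° C. Test solution at 200 ppm was sprayed to runoff onto both leaf surfaces of cabbage seedlings infested a day earlier with 20-50 aphids; four replicate pots.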

[2] = system: Yellow Fever Mosquito (Aedes aegypti, AEDSAE); settings: for YFM rating: Table ABC / ABC-DP rating
In short: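 Mortality after 3 days at room temperature is the read-out, scored well by well and converted to a rating. Test molecules came from 4000 ppm stocks in DMSO, further diluted in 90:10 water/acetone, and were exposed to roughly 1-day-old larvae suspended in liver-powder water.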

[3] = system: Beet Armyworm (Spodoptera exigua, LAPHEG); assay: Bioassays on Beet Armyworm (BAW), 128-well diet tray assay; settings: Spodoptera exigua
In short: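 Eight diet wells per compound were treated at 50 μg/cm^2 (acetone-water 90:10), dried, then infested with 1–5 second-instar larvae each. After five to seven days at 25 °C under 14:10 photoperiod, mortality was scored and averaged across wells.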

[4] = system: Cabbage Looper (Trichoplusia ni, TRIPNI); assay: Bioassays on Cabbage Looper (CL), 128-well diet tray assay; settings: Trichoplusia ni
In short: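 Second-instar larvae (1–5 per well) placed on artificial diet surface-treated with 50 μg/cm^2 test molecule applied in 90:10 acetone-water and dried. Held at 25° C., 14:10 light-dark, for five to seven days. Percent mortality scored per well and averaged over eight wells.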

[5] = Green Peach Aphid, Table ABC / ABC-DP rating, read-out: GPA rating
[6] = Beet Armyworm, Table ABC / ABC-DP rating, read-out: BAW rating
[7] = Cabbage Looper, Table ABC / ABC-DP rating, read-out: CL rating
[8] = Green Peach Aphid, rating class, read-out: GPA
[9] = Yellow Fever Mosquito, rating class
[10] = Beet Armyworm, rating class, read-out: BAW
[11] = Cabbage Looper, rating class, read-out: CL
[12] = Table ABC: Biological Results, species GPA, read-out: GPA
[13] = Table ABC: Biological Results, species YFM
[14] = Table ABC: Biological Results, species BAW, read-out: BAW
[15] = Table ABC: Biological Results, species CL, read-out: CL

Row | Structure (SMILES) | pest or weed control at 200 µg/mL [1, 8] [%] | YFM [2, 9] | pest or weed control at 50 µg/cm2 [3, 10] [%] | pest or weed control at 50 µg/cm2 [4, 11] [%] | pest or weed control at 200 µg/mL [1, 12] [%] | YFM [2, 13] | pest or weed control at 50 µg/cm2 [3, 14] [%] | pest or weed control at 50 µg/cm2 [4, 15] [%] | also measured
1 | O=C(NCC(F)(F)F)c1c(Cl)ccc(NC(=O)[C@H]2[C@H](c3ccc(F)c(Cl)c3)C2(Cl)Cl)c1Cl (relative stereo) [F2020, trans-2,6-Dichloro-3-(2,2-dichloro-3-(3-chloro-4-fluorophenyl)cyclopropane-1-carboxamido)-N-(2,2,2-trifluoroethyl)benzamide] |  |  |  |  |  |  |  |  | pest or weed control at 200 µg/mL [1, 5]: 0 to 80%; YFM rating ([2]; Yellow Fever Mosquito): A (80–100); pest or weed control at 50 µg/cm2 [3, 6]: 50 to 100%; pest or weed control at 50 µg/cm2 [4, 7]: 50 to 100%
2 | CN(C(=O)C(F)F)c1c(F)ccc(NC(=O)c2cc(NC(=O)[C@H]3[C@H](c4ccc(F)c(Cl)c4)C3(Cl)Cl)ccc2Cl)c1F [F1460, 2-Chloro-5-((1R,3R)-2,2-dichloro-3-(3-chloro-4-fluorophenyl)cyclopropane-1-carboxamido)-N-(3-(2,2-difluoro-N-methylacetamido)-2,4-difluorophenyl)benzamide] | 80 to 100 | A (80–100) | 50 to 100 | 50 to 100 |  |  |  |  | 
3 | O=C(Nc1ccc(F)c(NC(=O)C(F)(F)F)c1F)c1cc(NC(=O)[C@H]2[C@H](c3ccc(Cl)c(C(F)(F)F)c3)C2(Cl)Cl)ccc1Cl [F1656, 2-Chloro-5-((1R,3R)-2,2-dichloro-3-(4-chloro-3-(trifluoromethyl)phenyl)cyclopropane-1-carboxamido)-N-(2,4-difluoro-3-(2,2,2-trifluoroacetamido)phenyl)benzamide] | 0 to 80 | A (80–100) | 50 to 100 | 50 to 100 |  |  |  |  | 
4 | O=C(Nc1ccc(F)cc1F)c1cc(NC(=O)[C@H]2[C@H](c3ccc(S(F)(F)(F)(F)F)cc3)C2(Cl)Cl)ccc1Cl (relative stereo) [F1089, trans-2-Chloro-5-(2,2-dichloro-3-(4-(pentafluoro-λ^6-sulfanyl)phenyl)cyclopropane-1-carboxamido)-N-(2,4-difluorophenyl)benzamide] |  |  |  |  | 0 to 80 | A (80–100) | 50 to 100 | 50 to 100 | 
5 | Nc1c(F)ccc(NC(=O)c2cc(NC(=O)[C@H]3[C@H](c4cccc(C(F)(F)F)c4)C3(Cl)Cl)ccc2Cl)c1F [F1666, N-(3-Amino-2,4-difluorophenyl)-2-chloro-5-((1R,3R)-2,2-dichloro-3-(3-(trifluoromethyl)phenyl)cyclopropane-1-carboxamido)benzamide] | 80 to 100 | B (More than 0 – Less than 80) | 50 to 100 | 50 to 100 |  |  |  |  | 
6 | O=C(Nc1ccc(F)c(NC(=O)C(F)(F)F)c1F)c1cc(NC(=O)[C@H]2[C@H](c3ccc(F)c(Cl)c3)C2(Cl)Cl)ccc1Cl [F1695, 2-Chloro-5-((1R,3R)-2,2-dichloro-3-(3-chloro-4-fluorophenyl)cyclopropane-1-carboxamido)-N-(2,4-difluoro-3-(2,2,2-trifluoroacetamido)phenyl)benzamide] | 80 to 100 | B (More than 0 – Less than 80) | 50 to 100 | 50 to 100 |  |  |  |  | 
7 | O=C(Nc1ccc(F)cc1)c1c(Cl)ccc(NC(=O)[C@H]2[C@H](c3ccc(F)c(Cl)c3)C2(Cl)Cl)c1F [F1465, 6-chloro-3-((1R,3R)-2,2-dichloro-3-(3-chloro-4-fluorophenyl)cyclopropane-1-carboxamido)-2-fluoro-N-(4-fluorophenyl)benzamide] | 80 to 100 | A (80–100) | 50 to 100 | 50 to 100 |  |  |  |  | 
8 | CCNC(=O)c1c(F)ccc(NC(=O)[C@H]2[C@H](c3ccc(F)c(Cl)c3)C2(Cl)Cl)c1F (relative stereo) [F2016, trans-3-(2,2-Dichloro-3-(3-chloro-4-fluorophenyl)cyclopropane-1-carboxamido)-N-ethyl-2,6-difluorobenzamide] |  |  |  |  |  |  |  |  | pest or weed control at 200 µg/mL [1, 5]: 80 to 100%; YFM rating ([2]; Yellow Fever Mosquito): A (80–100); pest or weed control at 50 µg/cm2 [3, 6]: 50 to 100%; pest or weed control at 50 µg/cm2 [4, 7]: 50 to 100%
9 | CCC(=O)Nc1c(F)ccc(NC(=O)c2cc(NC(=O)[C@H]3[C@H](c4ccc(F)c(C(F)(F)F)c4)C3(Cl)Cl)ccc2Cl)c1F [F1371, 2-Chloro-5-((1R,3R)-2,2-dichloro-3-(4-fluoro-3-(trifluoromethyl)phenyl)cyclopropane-1-carboxamido)-N-(2,4-difluoro-3-propionamidophenyl)benzamide] |  |  |  |  | 0 to 80 | A (80–100) | 50 to 100 | 50 to 100 | 
10 | O=C(CC1CC1)Nc1c(F)ccc(NC(=O)c2cc(NC(=O)[C@H]3[C@H](c4ccc(F)c(Cl)c4)C3(Cl)Cl)ccc2Cl)c1F [F1702, 2-Chloro-N-(3-(2-cyclopropylacetamido)-2,4-difluorophenyl)-5-((1R,3R)-2,2-dichloro-3-(3-chloro-4-fluorophenyl)cyclopropane-1-carboxamido)benzamide] | 80 to 100 | A (80–100) | 50 to 100 | 50 to 100 |  |  |  |  | 
11 | O=C(Nc1ccccc1)c1c(F)ccc(NC(=O)[C@H]2[C@H](c3ccc(F)c(Cl)c3)C2(Cl)Cl)c1F (relative stereo) [F1108, trans-3-(2,2-Dichloro-3-(3-chloro-4-fluorophenyl)cyclopropane-1-carboxamido)-2,6-difluoro-N-phenylbenzamide] |  |  |  |  | 80 to 100 | A (80–100) | 50 to 100 | 50 to 100 | 
12 | O=C(Nc1ccc(F)c(NC(=O)C(F)(F)C(F)(F)F)c1F)c1cc(NC(=O)[C@H]2[C@H](c3ccc(F)c(Cl)c3)C2(Cl)Cl)ccc1Cl [F1696, 2-Chloro-5-((1R,3R)-2,2-dichloro-3-(3-chloro-4-fluorophenyl)cyclopropane-1-carboxamido)-N-(2,4-difluoro-3-(2,2,3,3,3-pentafluoropropanamido)phenyl)benzamide] | 80 to 100 | A (80–100) | 50 to 100 | 50 to 100 |  |  |  |  | 
13 | C#CCN(C(=O)c1cc(NC(=O)[C@H]2[C@H](c3cc(Cl)cc(Cl)c3)C2(Cl)Cl)ccc1Cl)c1ccc(F)cc1C#N (relative stereo) [F1072, trans-2-Chloro-N-(2-cyano-4-fluorophenyl)-5-(2,2-dichloro-3-(3,5-dichlorophenyl)cyclopropane-1-carboxamido)-N-(prop-2-yn-1-yl)benzamide] |  |  |  |  | 0 to 80 | A (80–100) | 50 to 100 | 50 to 100 | 
14 | O=C(NCCF)c1c(Cl)ccc(NC(=O)[C@H]2[C@H](c3ccc(F)c(Cl)c3)C2(Cl)Cl)c1Cl (relative stereo) [F2025, trans-2,6-Dichloro-3-(2,2-dichloro-3-(3-chloro-4-fluorophenyl)cyclopropane-1-carboxamido)-N-(2-fluoroethyl)benzamide] |  |  |  |  |  |  |  |  | pest or weed control at 200 µg/mL [1, 5]: 0 to 80%; YFM rating ([2]; Yellow Fever Mosquito): A (80–100); pest or weed control at 50 µg/cm2 [3, 6]: 50 to 100%; pest or weed control at 50 µg/cm2 [4, 7]: 50 to 100%
15 | O=C(Nc1ccc(F)cc1)c1c(Cl)ccc(NC(=O)[C@H]2[C@H](c3ccc(F)c(Cl)c3)C2(Cl)Cl)c1Cl (relative stereo) [F1103, trans-2,6-Dichloro-3-(2,2-dichloro-3-(3-chloro-4-fluorophenyl)cyclopropane-1-carboxamido)-N-(4-fluorophenyl)benzamide] |  |  |  |  | 0 to 80 | A (80–100) | 50 to 100 | 50 to 100 | 
16 | CC(F)(F)CNC(=O)c1cc(NC(=O)[C@H]2[C@H](c3cc(Cl)cc(Cl)c3)C2(Cl)Cl)ccc1Cl (relative stereo) [F2075, trans-2-Chloro-5-(2,2-dichloro-3-(3,5-dichlorophenyl)cyclopropane-1-carboxamido)-N-(2,2-difluoropropyl)benzamide] |  |  |  |  |  |  |  |  | pest or weed control at 200 µg/mL [1, 5]: 80 to 100%; YFM rating ([2]; Yellow Fever Mosquito): B (More than 0 – Less than 80); pest or weed control at 50 µg/cm2 [3, 6]: 50 to 100%; pest or weed control at 50 µg/cm2 [4, 7]: 50 to 100%
